From PMC7844276, “Multi-functionality of a tryptophan residue conserved in substrate-binding groove of GH19 chitinases” (Scientific Reports, 2021)
pKd: −log10 of the molar value.

How the values were obtained:
Type in all cases: binding
[1] = target: T1, BcChi-A (Gemmabryum coronatum, UniProt A9ZSX9, E84Q/W126A); test: 1H-15N HSQC NMR titration, Asn20 bound-state intensity (slow exchange); settings: 50 mM sodium acetate pH 5.0, 90% H2O/10% D2O, 300 K; 0.2 mM 15N protein; catalytically inactive mutant
T1 construct: gene bcchiA; recombinant, pET-22b in E. coli BL21(DE3); purified from cell lysate by acid treatment, Q-Sepharose, Sephacryl S-100; no tag mentioned; 15N-labelled for NMR; catalytic domain, loopless GH19
Excerpt: (§1) 1H-15N HSQC NMR titration, Asn20 bound-state intensity (slow exchange) on BcChi-A

[2] = target: T2, BcChi-A (Gemmabryum coronatum, UniProt A9ZSX9, E84Q); test: as above; settings: 50 mM sodium acetate pH 5.0, 90% H2O/10% D2O, 300 K; 0.2 mM 15N protein; catalytically inactive mutant
T2 construct: gene bcchiA; recombinant, pET-22b in E. coli BL21(DE3); purified from cell lysate by acid treatment, Q-Sepharose, Sephacryl S-100; no tag mentioned; 15N-labelled for NMR; catalytic domain, loopless GH19
Excerpt: as §1

[3] = target: T3, BcChi-A (Gemmabryum coronatum, UniProt A9ZSX9, E84Q/W126F); test: as above; settings: 50 mM sodium acetate pH 5.0, 90% H2O/10% D2O, 300 K; 0.2 mM 15N protein; catalytically inactive mutant
T3 construct: gene bcchiA; recombinant, pET-22b in E. coli BL21(DE3); purified from cell lysate by acid treatment, Q-Sepharose, Sephacryl S-100; no tag mentioned; 15N-labelled for NMR; catalytic domain, loopless GH19
Excerpt: as §1

[4] = target: T4, BcChi-A (Gemmabryum coronatum, UniProt A9ZSX9, W126F); test: 1H-15N HSQC NMR titration, Asn20 chemical shift; settings: 50 mM sodium acetate pH 5.0, 90% H2O/10% D2O, 300 K; 0.2 mM 15N protein
T4 construct: gene bcchiA; recombinant, pET-22b in E. coli BL21(DE3); purified from cell lysate by acid treatment, Q-Sepharose, Sephacryl S-100; no tag mentioned; 15N-labelled for NMR; catalytic domain, loopless GH19
Excerpt: (§2) 1H-15N HSQC NMR titration, Asn20 chemical shift on BcChi-A

[5] = target: T5, BcChi-A (Gemmabryum coronatum, UniProt A9ZSX9, W126A); test: 1H-15N HSQC NMR titration, Asn20 chemical shift; settings: 50 mM sodium acetate pH 5.0, 90% H2O/10% D2O, 300 K; 0.2 mM 15N protein
T5 construct: gene bcchiA; recombinant, pET-22b in E. coli BL21(DE3); purified from cell lysate by acid treatment, Q-Sepharose, Sephacryl S-100; no tag mentioned; 15N-labelled for NMR; catalytic domain, loopless GH19
Excerpt: as §2

[6] = target: T6, BcChi-A (Gemmabryum coronatum, UniProt A9ZSX9); test: 1H-15N HSQC NMR titration, Asn20 chemical shift; settings: 50 mM sodium acetate pH 5.0, 90% H2O/10% D2O, 300 K; 0.2 mM 15N protein
T6 construct: gene bcchiA; recombinant, pET-22b in E. coli BL21(DE3); purified from cell lysate by acid treatment, Q-Sepharose, Sephacryl S-100; no tag mentioned; 15N-labelled for NMR; catalytic domain, loopless GH19
Excerpt: as §2

T3 sequence (A9ZSX9 entry or part of it E84Q/W126F): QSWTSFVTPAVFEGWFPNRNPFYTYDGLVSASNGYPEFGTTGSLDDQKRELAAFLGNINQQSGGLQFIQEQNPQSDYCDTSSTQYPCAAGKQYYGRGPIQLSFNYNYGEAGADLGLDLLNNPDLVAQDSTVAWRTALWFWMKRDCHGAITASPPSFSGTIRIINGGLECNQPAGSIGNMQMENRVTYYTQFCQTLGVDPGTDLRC
T4 sequence (A9ZSX9 entry or part of it W126F): as the sequence (A9ZSX9 entry or part of it E84Q/W126F) above, with Q61E counted along it
T1 sequence (A9ZSX9 entry or part of it E84Q/W126A): as the sequence (A9ZSX9 entry or part of it E84Q/W126F) above, with F103A counted along it
T5 sequence (A9ZSX9 entry or part of it W126A): as the sequence (A9ZSX9 entry or part of it E84Q/W126F) above, with Q61E, F103A counted along it
T6 sequence (A9ZSX9 entry or part of it): as the sequence (A9ZSX9 entry or part of it E84Q/W126F) above, with Q61E, F103W counted along it
T2 sequence (A9ZSX9 entry or part of it E84Q): as the sequence (A9ZSX9 entry or part of it E84Q/W126F) above, with F103W counted along it

pKd [1]	pKd [2]	pKd [3]	pKd [4]	pKd [5]	pKd [6]	Structure (SMILES)
3.70	4.85	3.00				CC(=O)N[C@H]1[C@H](O[C@H]2[C@H](O)[C@@H](NC(C)=O)[C@H](O[C@H]3[C@H](O)[C@@H](NC(C)=O)C(O)O[C@@H]3CO)O[C@@H]2CO)O[C@H](CO)[C@@H](O[C@@H]2O[C@H](CO)[C@@H](O[C@@H]3O[C@H](CO)[C@@H](O[C@@H]4O[C@H](CO)[C@@H](O)[C@H](O)[C@H]4NC(C)=O)[C@H](O)[C@H]3NC(C)=O)[C@H](O)[C@H]2NC(C)=O)[C@@H]1O (stereo partly drawn) [(GlcNAc)6]
			1.66	1.62	2.38	CC(=O)N[C@H]1[C@H](O[C@H]2[C@H](O)[C@@H](NC(C)=O)C(O)O[C@@H]2CO)O[C@H](CO)[C@@H](O)[C@@H]1O (stereo partly drawn) [(GlcNAc)2]
